{
  "source": "patent US20120130144A1",
  "about": "“TREATMENT OF LUNG CANCER WITH A NITROBENZAMIDE COMPOUND IN COMBINATION WITH A GROWTH FACTOR INHIBITOR” (BiPar Sciences, Inc., priority 2009, published 2012)",
  "origin": "cited, not measured here",
  "test_system": "VEGF",
  "sequence (P15692 207-311 limits assumed)": "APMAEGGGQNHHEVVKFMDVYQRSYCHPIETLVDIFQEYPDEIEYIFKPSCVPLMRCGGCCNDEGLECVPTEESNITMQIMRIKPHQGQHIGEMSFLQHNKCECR",
  "conditions": "human, in vivo; cited from earlier work",
  "data": [
    {"substance": "bevacizumab: first anti-VEGF drug, a monoclonal antibody", "values": [
      {"measurement": "patients who benefit from therapy", "value": "10-15%"}
    ]}
  ]
}
